These compounds were tested against TTR variant Y78F (Homo sapiens, UniProt P02766, Y98F) (assay: Kinetic turbidity assay of acid induced fibril formation). Settings: inhibitor concentration at which the initial rate of fibril formation is half; Y78F TTR 0.4 mg/mL, pH 4.2, 37 °C; read-out: Kinetic turbidity assay IC50.
Assay type: biochemical
Source text: Two different parameters can be derived from this kinetic test. The IC50 value is the inhibitor concentration at which the initial rate of fibril formation is half than that in the absence of inhibitor. In turn, RA (%) can be defined as the percent reduction of fibril formation rate at high inhibitor concentration relative to the rate at zero concentration of tested compound.
An in vitro turbidimetric test in a high troughput mode was used to assess the fibrillogenesis inhibition potency of the compounds of the library. The mutant protein TTRY78F was incubated with various concentrations of test compounds in 96 well microplates. After lowering the pH of the solutions to 4.2, the incubation was extended for 1.5 h while recording the absorbance at 340 nm at 1 min intervals. […] (Figure S1).
The mutant Y78F TTR protein (0.4 mg.mL^-1) was incubated for 30 min (pH 7.6, 37 °C) with 6 concentrations of test compounds ranging from 0 to 40 µM in 96-well microplates.
IC50% value is the inhibitor concentration at which the initial rate of fibril formation is half of that in the absence of inhibitor. RA(%) is the percentage of reduction in fibril formation rate induced by a given concentration of test compound relative to the rate of experiments at zero concentration of test compound.

Structure (SMILES) | IC50
NC(=O)c1cc(-c2ccc(F)cc2F)ccc1O [2a, 2’,4’-difluoro-4-hydroxy-[1,1’]-biphenyl-3-carboxamide] | > 50 µM
CCOC(=O)c1cc(-c2ccc(F)cc2F)ccc1O [4a, 2’,4’-difluoro-4-hydroxy-[1,1’]-biphenyl-3-carboxylic acid ethyl ester] | > 50 µM
Nc1ccc(-c2ccc(F)cc2F)cc1C(=O)O [5a, 2’,4’-difluoro-4-amino-[1,1’]-biphenyl-3-carboxylic acid] | > 50 µM
COC(=O)c1cc(-c2ccc(F)cc2F)ccc1N [6a, 2’,4’-difluoro-4-amino-[1,1’]-biphenyl-3-carboxylic acid methyl ester] | 41 µM
CC(=O)Oc1ccc(-c2ccc(F)cc2F)cc1C(=O)O [7a, 4-Acetoxy-2’,4’-difluoro-[1,1’]-biphenyl-3-carboxylic acid] | > 50 µM
CC(=O)Oc1c(I)cc(-c2ccc(F)cc2F)cc1C(=O)O [7b, 4-Acetoxy-2’,4’-difluoro-5-iodo-[1,1’]-biphenyl-3-carboxylic acid] | 4.8 µM
O=C(O)CNC(=O)c1cc(-c2ccc(F)cc2F)ccc1O [8a, N-[2’,4’-difluoro-4-hydroxy-[1,1’]-biphenyl-3-carbonyl]-glycine] | > 50 µM
C[C@H](NC(=O)c1cc(-c2ccc(F)cc2F)ccc1O)C(=O)O [9a, N-[2’,4’-difluoro-4-hydroxy-[1,1’]-biphenyl-3-carbonyl]-L-alanine] | > 50 µM
COC(=O)[C@H](C)NC(=O)c1cc(-c2ccc(F)cc2F)ccc1O [10a, N-[2’,4’-difluoro-4-hydroxy-[1,1’]-biphenyl-3-carbonyl]-L-alanine methyl ester] | > 50 µM
CCOC(=O)[C@H](C)NC(=O)c1cc(-c2ccc(F)cc2F)ccc1O [11a, N-[2’,4’-difluoro-4-hydroxy-[1,1’]-biphenyl-3-carbonyl]-L-alanine ethyl ester] | > 50 µM
CC(C)C[C@H](NC(=O)c1cc(-c2ccc(F)cc2F)ccc1O)C(=O)O [12a, N-[2’,4’-difluoro-4-hydroxy-[1,1’]-biphenyl-3-carbonyl]-L-leucine] | > 50 µM
CC(C)C[C@H](NC(=O)c1cc(-c2ccc(F)cc2F)cc(I)c1O)C(=O)O [12b, N-[2’,4’-difluoro-4-hydroxy-5-iodo-[1,1’]-biphenyl-3-carbonyl]-L-leucine] | 5 µM
CC(C)CC(NC(=O)c1cc(-c2ccc(F)cc2F)ccc1O)C(=O)OC(C)(C)C [13a, N-[2’,4’-difluoro-4-hydroxy-[1,1’]-biphenyl-3-carbony]-L-leucine tert-butyl ester] | > 50 µM
CC(C)CC(NC(=O)c1cc(-c2ccc(F)cc2F)cc(I)c1O)C(=O)OC(C)(C)C [13b, N-[2’-,4’-difluoro-4-hydroxy-5-iodo-[1,1’]-biphenyl-3-carbonyl)-L-leucine tert-butyl ester] | > 50 µM
O=C(NC(CO)C(=O)O)c1cc(-c2ccc(F)cc2F)ccc1O (stereo not drawn) [14a] | > 50 µM
COC(=O)[C@H](CO)NC(=O)c1cc(-c2ccc(F)cc2F)ccc1O [15a, N-[2’,4’-difluoro-4-hydroxy-[1,1’]-biphenyl-3-carbonyl]-L-serine methyl ester] | > 50 µM
O=C(O)C[C@H](NC(=O)c1cc(-c2ccc(F)cc2F)ccc1O)C(=O)O [16a, N-[2’,4’-difluoro-4-hydroxy-[1,1’]-biphenyl-3-carbonyl]-L-aspartic] | > 50 µM
O=C(O)CC(NC(=O)c1cc(-c2ccc(F)cc2F)cc(I)c1O)C(=O)O [16b, N-[2’-,4’-difluoro-4-hydroxy-5-iodo-[1,1’]-biphenyl-3-carbonyl]-L-aspartic] | 5.2 µM
COC(=O)C(CC(=O)O)NC(=O)c1cc(-c2ccc(F)cc2F)ccc1O [17a, N-[2’,4’-difluoro-4-hydroxy-[1,1’]-biphenyl-3-carbonyl]-L-aspartic α-methyl ester] | > 50 µM
CC(C)(C)OC(=O)CC(NC(=O)c1cc(-c2ccc(F)cc2F)ccc1O)C(=O)O [18a, N-[2’,4’-difluoro-4-hydroxy-[1,1’]-biphenyl-3-carbonyl]-L-aspartic β-tert-butyl ester] | 38.3 µM
CC(C)(C)OC(=O)CC(NC(=O)c1cc(-c2ccc(F)cc2F)cc(I)c1O)C(=O)O [18b, N-[2’,4’-difluoro-4-hydroxy-5-iodo-[1,1’]-biphenyl-3-carbonyl]-L-aspartic β-tert-butyl ester] | 6 µM
COC(=O)C(CC(=O)OC(C)(C)C)NC(=O)c1cc(-c2ccc(F)cc2F)ccc1O [19a, N-[2-,4’-difluoro-4-hydroxy-[1,1’]-biphenyl-3-carbonyl]-L-aspartic α-methyl ester and β-tert-butyl ester] | > 50 µM
NC(=O)C[C@H](NC(=O)c1cc(-c2ccc(F)cc2F)ccc1O)C(=O)O [20a, N-[2’,4’-difluoro-4-hydroxy-[1,1’]-biphenyl-3-carbonyl]-L-asparagine] | > 50 µM
NC(=O)CC(NC(=O)c1cc(-c2ccc(F)cc2F)cc(I)c1O)C(=O)O [20b, N-[2’-,4’-difluoro-4-hydroxy-5-iodo-[1,1’]-biphenyl-3-carbonyl]-L-asparagine] | 7.7 µM

Further lines, results first:

IC50 | Structure (SMILES)
12.4 µM | NC(=O)c1cc(-c2ccc(F)cc2F)cc(I)c1O [2b, 2’,4’-difluoro-4-hydroxy-5-iodo-[1,1’]-biphenyl-3-carboxamide]
> 50 µM | COC(=O)c1cc(-c2ccc(F)cc2F)ccc1O [3a, 2’,4’-difluoro-4-hydroxy-[1,1’]-biphenyl-3-carboxylic methyl ester]
6.1 µM | COC(=O)c1cc(-c2ccc(F)cc2F)cc(I)c1O [3b, 2’,4’-difluoro-4-hydroxy-5-iodo-[1,1’]-biphenyl-3-carboxylic methyl ester]
6.9 µM | CCOC(=O)c1cc(-c2ccc(F)cc2F)cc(I)c1O [4b]
16.3 µM | Nc1c(I)cc(-c2ccc(F)cc2F)cc1C(=O)O [5b, 2’,4’-difluoro-4-amino-3-iodo-[1,1’]-biphenyl-3-carboxylic acid]
7.5 µM | COC(=O)c1cc(-c2ccc(F)cc2F)cc(I)c1N [6b, 2’,4’-difluoro-4-amino-3-iodo-[1,1’]-biphenyl-3-carboxylic acid methyl ester]
11.1 µM | O=C(O)CNC(=O)c1cc(-c2ccc(F)cc2F)cc(I)c1O [8b, N-[2’-,4’-difluoro-4-hydroxy-5-iodo-[1,1’]-biphenyl-3-carbonyl]-glycine]
5.8 µM | CC(NC(=O)c1cc(-c2ccc(F)cc2F)cc(I)c1O)C(=O)O [9b, N-[2’,4’-difluoro-4-hydroxy-5-iodo-hydroxy-[1,1’]-biphenyl-3-carbonyl]-L-alanine]
5.5 µM | COC(=O)[C@H](C)NC(=O)c1cc(-c2ccc(F)cc2F)cc(I)c1O [10b, N-[2’,4’-difluoro-4-hydroxy-5-iodo-[1,1’]-biphenyl-3-carbonyl] -L-alanine methyl ester]
3.7 µM | O=C(N[C@@H](CO)C(=O)O)c1cc(-c2ccc(F)cc2F)cc(I)c1O [14b, N-[2’,4’-difluoro-4-hydroxy-5-iodo-[1,1’]-biphenyl-3-carbonyl]–L-serine]
7.2 µM | COC(=O)[C@H](CO)NC(=O)c1cc(-c2ccc(F)cc2F)cc(I)c1O [15b, N-[2’,4’-difluoro-4-hydroxy-5-iodo-[1,1’]-biphenyl-3-carbonyl]-L-serine methyl ester]
4.1 µM | COC(=O)C(CC(=O)O)NC(=O)c1cc(-c2ccc(F)cc2F)cc(I)c1O [17b, N-[2’,4’-difluoro-4-hydroxy-5-iodo-[1,1’]-biphenyl-3-carbonyl]-L-aspartic α-methyl ester]

Reference: article PMC2607018, “Iodine Atoms: A New Molecular Feature for the Design of Potent Transthyretin Fibrillogenesis Inhibitors” (PLoS ONE, 2009)
